Values joined by “and” are separate entries in the source; they are usually repeats but may differ in a detail not shown here. Equal entries are not always repeated.
Legend:
[1] = molecular target: Sodium-dependent noradrenaline transporter (Homo sapiens, UniProt P23975)
[2] = molecular target: T1, 5-hydroxytryptamine receptor 2B (Homo sapiens, UniProt P41595); format: functional, cell-based
[3] = molecular target: T2, Alpha-2A adrenergic receptor (Homo sapiens, UniProt P08913); format: functional, cell-based
T2 sequence (P08913 whole entry): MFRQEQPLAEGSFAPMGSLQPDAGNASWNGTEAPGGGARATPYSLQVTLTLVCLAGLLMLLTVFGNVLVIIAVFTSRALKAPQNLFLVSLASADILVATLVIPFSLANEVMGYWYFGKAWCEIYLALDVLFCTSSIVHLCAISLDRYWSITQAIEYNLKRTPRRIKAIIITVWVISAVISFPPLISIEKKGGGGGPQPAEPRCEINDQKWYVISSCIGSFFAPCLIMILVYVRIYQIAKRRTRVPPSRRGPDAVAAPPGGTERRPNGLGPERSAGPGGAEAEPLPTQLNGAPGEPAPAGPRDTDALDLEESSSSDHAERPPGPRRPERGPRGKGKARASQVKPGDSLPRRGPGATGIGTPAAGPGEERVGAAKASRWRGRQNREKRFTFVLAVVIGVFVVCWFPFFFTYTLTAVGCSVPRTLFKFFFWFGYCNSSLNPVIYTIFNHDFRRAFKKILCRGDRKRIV

[4] = molecular target: T3, Neuropeptide Y receptor type 1 (Homo sapiens, UniProt P25929)
T3 sequence (P25929 whole entry): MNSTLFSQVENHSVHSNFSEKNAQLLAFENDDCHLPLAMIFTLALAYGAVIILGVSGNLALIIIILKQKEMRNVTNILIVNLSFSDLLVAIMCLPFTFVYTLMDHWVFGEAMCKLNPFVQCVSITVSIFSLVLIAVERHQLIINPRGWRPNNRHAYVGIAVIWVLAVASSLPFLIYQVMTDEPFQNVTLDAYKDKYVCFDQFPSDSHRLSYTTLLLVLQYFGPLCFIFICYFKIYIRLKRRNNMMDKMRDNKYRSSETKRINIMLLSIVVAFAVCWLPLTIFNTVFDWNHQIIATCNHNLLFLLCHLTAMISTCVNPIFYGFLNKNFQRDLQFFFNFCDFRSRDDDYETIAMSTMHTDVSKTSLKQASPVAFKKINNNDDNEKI

[5] = molecular target: T4, Muscarinic acetylcholine receptor M2 (Homo sapiens, UniProt P08172); format: functional, cell-based
T4 sequence (P08172 whole entry): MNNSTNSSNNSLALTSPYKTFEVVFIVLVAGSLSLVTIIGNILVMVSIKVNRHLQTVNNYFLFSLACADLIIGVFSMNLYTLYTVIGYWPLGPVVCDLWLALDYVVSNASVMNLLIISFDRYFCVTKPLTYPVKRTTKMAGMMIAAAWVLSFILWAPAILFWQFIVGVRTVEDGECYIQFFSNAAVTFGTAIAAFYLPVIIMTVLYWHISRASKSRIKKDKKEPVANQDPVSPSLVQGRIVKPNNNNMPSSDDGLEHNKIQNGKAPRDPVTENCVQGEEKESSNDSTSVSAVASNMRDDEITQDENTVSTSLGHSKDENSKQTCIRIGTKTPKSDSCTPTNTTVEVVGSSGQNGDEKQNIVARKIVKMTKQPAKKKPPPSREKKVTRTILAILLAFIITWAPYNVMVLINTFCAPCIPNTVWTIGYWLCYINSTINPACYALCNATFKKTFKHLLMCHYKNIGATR

[6] = molecular target: Beta-1 adrenergic receptor (Homo sapiens, UniProt P08588); format: functional
Beta-1 adrenergic receptor, sequence (P08588 whole entry): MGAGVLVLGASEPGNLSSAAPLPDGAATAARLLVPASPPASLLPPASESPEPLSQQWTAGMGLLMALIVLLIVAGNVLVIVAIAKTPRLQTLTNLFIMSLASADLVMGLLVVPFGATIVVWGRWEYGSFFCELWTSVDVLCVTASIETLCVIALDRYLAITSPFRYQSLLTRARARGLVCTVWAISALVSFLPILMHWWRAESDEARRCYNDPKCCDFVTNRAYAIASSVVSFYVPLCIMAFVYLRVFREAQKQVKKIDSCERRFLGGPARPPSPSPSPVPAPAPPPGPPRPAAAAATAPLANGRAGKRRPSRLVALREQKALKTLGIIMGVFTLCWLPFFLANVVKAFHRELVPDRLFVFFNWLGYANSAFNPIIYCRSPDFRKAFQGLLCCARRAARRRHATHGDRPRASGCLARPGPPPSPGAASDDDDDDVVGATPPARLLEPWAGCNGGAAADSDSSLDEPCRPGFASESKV

Adenosine receptor A2a = Adenosine receptor A2a (Homo sapiens, UniProt P29274)
Adenosine receptor A2a, sequence (P29274 whole entry): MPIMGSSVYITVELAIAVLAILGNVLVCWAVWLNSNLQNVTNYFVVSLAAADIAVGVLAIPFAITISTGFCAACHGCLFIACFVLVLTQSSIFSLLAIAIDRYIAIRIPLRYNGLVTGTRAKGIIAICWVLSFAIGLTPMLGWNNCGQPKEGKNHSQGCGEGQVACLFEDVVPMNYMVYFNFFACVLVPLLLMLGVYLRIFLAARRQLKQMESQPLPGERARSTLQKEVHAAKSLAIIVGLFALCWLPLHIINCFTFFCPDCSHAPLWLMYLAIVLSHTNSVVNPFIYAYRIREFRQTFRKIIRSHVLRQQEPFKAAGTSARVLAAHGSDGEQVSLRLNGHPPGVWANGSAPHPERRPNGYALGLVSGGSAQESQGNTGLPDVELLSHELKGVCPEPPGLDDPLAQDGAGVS

[7] = molecular target: cGMP-inhibited 3',5'-cyclic phosphodiesterase 3A (Homo sapiens, UniProt Q14432); format: functional
Vasopressin V2 receptor = Vasopressin V2 receptor (Homo sapiens, UniProt P30518)
Vasopressin V2 receptor, sequence (P30518 whole entry): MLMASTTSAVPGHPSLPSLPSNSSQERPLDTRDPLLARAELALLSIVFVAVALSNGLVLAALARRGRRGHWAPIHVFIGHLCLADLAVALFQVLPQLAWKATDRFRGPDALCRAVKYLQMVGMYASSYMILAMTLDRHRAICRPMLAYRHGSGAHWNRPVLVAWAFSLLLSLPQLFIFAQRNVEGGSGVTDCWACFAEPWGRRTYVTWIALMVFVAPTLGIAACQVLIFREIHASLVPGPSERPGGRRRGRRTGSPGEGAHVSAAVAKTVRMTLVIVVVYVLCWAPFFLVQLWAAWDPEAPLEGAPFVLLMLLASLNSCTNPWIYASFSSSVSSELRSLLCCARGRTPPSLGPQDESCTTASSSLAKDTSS

Histamine H2 receptor = Histamine H2 receptor (Homo sapiens, UniProt P25021); format: functional, cell-based
Histamine H2 receptor, sequence (P25021 whole entry): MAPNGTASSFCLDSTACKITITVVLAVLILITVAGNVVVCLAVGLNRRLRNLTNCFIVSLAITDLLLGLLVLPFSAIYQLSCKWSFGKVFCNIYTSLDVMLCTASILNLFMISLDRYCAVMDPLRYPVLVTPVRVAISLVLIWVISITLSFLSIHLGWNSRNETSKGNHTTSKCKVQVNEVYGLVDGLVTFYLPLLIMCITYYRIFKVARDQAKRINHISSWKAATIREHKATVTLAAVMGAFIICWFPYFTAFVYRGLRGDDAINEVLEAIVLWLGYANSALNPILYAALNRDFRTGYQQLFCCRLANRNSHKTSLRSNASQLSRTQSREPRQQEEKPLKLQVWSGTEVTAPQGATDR

D(3) dopamine receptor = D(3) dopamine receptor (Homo sapiens, UniProt P35462)
D(3) dopamine receptor, sequence (P35462 whole entry): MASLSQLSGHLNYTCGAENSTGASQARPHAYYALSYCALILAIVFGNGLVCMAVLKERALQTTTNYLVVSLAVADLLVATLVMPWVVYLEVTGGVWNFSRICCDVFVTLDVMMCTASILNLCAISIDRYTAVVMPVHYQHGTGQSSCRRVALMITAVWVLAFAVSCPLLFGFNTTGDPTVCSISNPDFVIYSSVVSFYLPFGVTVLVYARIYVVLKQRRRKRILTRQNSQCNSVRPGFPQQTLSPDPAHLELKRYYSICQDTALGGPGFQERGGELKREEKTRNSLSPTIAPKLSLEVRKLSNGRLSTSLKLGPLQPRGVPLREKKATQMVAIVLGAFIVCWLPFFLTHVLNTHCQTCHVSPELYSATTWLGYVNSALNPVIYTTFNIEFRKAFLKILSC

[8] = molecular target: Voltage-dependent L-type calcium channel subunit alpha-1C (Rattus norvegicus, UniProt P22002); format: functional
Voltage-dependent L-type calcium channel subunit alpha-1C, sequence (P22002 whole entry): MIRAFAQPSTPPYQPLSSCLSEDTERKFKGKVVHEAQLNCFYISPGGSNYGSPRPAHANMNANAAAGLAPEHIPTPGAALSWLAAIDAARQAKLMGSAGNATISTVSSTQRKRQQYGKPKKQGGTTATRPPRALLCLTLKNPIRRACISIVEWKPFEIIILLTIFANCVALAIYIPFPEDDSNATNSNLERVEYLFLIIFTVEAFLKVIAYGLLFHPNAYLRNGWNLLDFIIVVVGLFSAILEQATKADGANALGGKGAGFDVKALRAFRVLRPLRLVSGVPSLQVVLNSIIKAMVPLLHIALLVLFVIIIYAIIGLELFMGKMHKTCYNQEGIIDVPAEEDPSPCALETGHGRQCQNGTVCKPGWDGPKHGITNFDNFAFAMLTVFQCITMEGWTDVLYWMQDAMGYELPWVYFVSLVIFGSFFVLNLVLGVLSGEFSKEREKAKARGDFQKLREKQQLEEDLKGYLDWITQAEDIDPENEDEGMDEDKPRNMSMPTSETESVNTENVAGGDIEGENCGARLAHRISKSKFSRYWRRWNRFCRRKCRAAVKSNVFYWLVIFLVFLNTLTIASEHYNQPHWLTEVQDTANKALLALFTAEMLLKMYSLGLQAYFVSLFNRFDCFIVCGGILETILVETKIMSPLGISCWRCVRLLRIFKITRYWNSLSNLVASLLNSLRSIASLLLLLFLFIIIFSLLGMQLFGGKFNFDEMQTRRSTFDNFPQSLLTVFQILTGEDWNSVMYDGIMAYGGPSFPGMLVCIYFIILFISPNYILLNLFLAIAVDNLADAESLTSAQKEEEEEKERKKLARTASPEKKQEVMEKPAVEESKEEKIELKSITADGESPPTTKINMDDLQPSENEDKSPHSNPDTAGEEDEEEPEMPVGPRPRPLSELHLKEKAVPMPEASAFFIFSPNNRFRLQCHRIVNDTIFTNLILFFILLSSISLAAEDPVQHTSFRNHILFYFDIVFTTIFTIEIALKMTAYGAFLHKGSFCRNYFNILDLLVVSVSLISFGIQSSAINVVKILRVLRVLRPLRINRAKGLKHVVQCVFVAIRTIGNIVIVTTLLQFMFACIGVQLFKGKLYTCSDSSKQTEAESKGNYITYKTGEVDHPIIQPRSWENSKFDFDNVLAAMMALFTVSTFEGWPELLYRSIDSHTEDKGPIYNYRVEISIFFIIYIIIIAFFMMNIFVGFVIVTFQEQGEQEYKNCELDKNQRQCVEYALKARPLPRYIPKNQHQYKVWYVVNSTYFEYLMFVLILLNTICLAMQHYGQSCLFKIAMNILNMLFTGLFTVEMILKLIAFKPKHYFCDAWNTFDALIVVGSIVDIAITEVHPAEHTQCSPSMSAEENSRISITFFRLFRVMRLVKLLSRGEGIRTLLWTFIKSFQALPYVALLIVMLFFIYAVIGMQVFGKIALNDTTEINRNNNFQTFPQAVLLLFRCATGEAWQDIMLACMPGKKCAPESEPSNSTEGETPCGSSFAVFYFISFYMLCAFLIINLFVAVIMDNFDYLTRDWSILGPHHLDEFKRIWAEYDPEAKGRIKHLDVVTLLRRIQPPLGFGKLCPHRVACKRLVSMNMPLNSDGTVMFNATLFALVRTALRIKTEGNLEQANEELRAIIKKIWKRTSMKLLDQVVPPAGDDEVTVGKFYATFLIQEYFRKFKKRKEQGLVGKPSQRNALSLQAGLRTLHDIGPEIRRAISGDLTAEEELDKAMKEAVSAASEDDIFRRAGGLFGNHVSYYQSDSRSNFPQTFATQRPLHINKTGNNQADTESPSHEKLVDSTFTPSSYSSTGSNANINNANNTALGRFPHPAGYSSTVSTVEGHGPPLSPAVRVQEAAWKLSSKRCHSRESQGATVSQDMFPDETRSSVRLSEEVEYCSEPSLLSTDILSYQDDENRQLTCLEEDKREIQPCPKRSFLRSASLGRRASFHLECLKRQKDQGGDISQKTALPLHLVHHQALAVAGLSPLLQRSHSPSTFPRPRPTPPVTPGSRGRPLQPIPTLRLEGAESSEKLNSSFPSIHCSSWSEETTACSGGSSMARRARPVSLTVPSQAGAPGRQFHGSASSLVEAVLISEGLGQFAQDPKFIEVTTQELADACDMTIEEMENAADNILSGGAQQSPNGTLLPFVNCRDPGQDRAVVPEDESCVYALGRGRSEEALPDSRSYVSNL

[9] = molecular target: T5, Alpha-2C adrenergic receptor (Homo sapiens, UniProt P18825); format: functional
T5 sequence (P18825 whole entry): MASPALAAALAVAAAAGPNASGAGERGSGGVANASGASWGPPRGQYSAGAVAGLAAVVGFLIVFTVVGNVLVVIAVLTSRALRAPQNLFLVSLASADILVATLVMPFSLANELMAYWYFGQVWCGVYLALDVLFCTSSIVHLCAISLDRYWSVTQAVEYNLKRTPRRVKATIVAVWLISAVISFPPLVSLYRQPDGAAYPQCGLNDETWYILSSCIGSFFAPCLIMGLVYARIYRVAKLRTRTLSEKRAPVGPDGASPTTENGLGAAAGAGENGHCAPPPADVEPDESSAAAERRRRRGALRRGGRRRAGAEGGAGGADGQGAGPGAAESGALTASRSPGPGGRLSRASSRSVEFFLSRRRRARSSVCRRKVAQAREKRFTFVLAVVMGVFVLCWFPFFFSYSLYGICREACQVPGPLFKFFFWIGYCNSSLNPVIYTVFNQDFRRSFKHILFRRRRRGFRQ

[10] = molecular target: T4, Muscarinic acetylcholine receptor M2; format: functional, cell-based; remark: listed apart in the source
[11] = molecular target: T1, 5-hydroxytryptamine receptor 2B; format: functional, cell-based; remark: listed apart in the source
[12] = molecular target: T6, Type-1 angiotensin II receptor (Homo sapiens, UniProt P30556)
T6 sequence (P30556 whole entry): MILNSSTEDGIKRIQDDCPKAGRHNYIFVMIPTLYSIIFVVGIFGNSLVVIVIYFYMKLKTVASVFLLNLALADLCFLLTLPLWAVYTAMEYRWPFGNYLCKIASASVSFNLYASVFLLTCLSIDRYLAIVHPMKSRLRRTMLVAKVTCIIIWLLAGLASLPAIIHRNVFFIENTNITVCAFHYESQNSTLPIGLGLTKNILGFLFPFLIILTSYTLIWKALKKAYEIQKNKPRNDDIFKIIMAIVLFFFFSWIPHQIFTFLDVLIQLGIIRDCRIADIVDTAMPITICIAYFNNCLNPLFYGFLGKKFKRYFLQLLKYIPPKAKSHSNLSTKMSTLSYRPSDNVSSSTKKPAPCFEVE
Further: assay procedure not described here.

T1 sequence (P41595 whole entry): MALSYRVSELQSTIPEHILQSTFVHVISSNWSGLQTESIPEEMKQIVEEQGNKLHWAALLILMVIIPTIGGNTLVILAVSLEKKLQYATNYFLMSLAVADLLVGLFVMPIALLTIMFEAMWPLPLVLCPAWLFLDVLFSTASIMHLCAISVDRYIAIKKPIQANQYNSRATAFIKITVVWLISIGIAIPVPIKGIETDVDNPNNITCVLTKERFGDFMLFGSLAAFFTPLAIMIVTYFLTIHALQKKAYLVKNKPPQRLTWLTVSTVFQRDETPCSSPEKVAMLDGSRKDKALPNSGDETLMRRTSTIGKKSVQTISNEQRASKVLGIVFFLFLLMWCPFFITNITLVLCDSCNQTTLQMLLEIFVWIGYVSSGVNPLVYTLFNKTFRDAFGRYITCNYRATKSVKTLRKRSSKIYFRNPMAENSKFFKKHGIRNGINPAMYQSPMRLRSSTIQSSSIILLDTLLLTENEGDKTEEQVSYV

SMILES | AC50 [1] | AC50 [2] | AC50 [3] | AC50 [4] | AC50 [5] | AC50 [6] | AC50 (Adenosine receptor A2a) | AC50 [7] | AC50 (Vasopressin V2 receptor) | AC50 (Histamine H2 receptor) | AC50 (D(3) dopamine receptor) | AC50 [8] | AC50 [9] | AC50 [10] | AC50 [11] | AC50 [12]
Oc1cc(O)c(Cl)cn1 | > 30 µM | > 30 µM | > 30 µM | > 30 µM | > 30 µM | > 30 µM | > 30 µM | > 30 µM | > 30 µM | > 30 µM | > 30 µM | > 30 µM | > 30 µM | > 30 µM | > 30 µM | > 30 µM
CC(C)N(CCCCOCC(=O)O)c1cnc(-c2ccccc2)c(-c2ccccc2)n1 | > 30 µM | > 30 µM | > 30 µM | > 30 µM | > 30 µM | > 30 µM | > 30 µM | > 30 µM | > 30 µM | > 30 µM | > 30 µM | > 30 µM | > 30 µM | > 30 µM | > 30 µM | 17 µM
CC(=O)c1ccc(S(=O)(=O)NC(=O)NC2CCCCC2)cc1 [ACETOHEXAMIDE] | > 10 µM | > 30 µM | > 30 µM | > 10 µM | > 10 µM | > 10 µM | > 10 µM | > 30 µM | > 10 µM | > 10 µM | > 30 µM | > 10 µM | > 10 µM | > 10 µM | > 30 µM | > 10 µM
COc1cc(C)c(/C=C/C(C)=C/C=C/C(C)=C/C(=O)O)c(C)c1C [ACITRETIN] | > 10 µM | > 10 µM | > 10 µM | > 10 µM | > 10 µM | > 10 µM | > 10 µM | > 10 µM | > 10 µM | > 10 µM | > 30 µM | > 10 µM | > 10 µM | > 10 µM | > 10 µM | > 10 µM
CCC1(CCC(C)C)C(=O)NC(=O)NC1=O [AMOBARBITAL] | > 10 µM | > 10 µM | > 10 µM | > 10 µM | > 10 µM | > 10 µM | > 10 µM | > 30 µM | > 10 µM | > 10 µM | > 30 µM | > 10 µM | > 10 µM | > 10 µM | > 10 µM | > 10 µM
COc1ccc(C2C(=O)c3ccccc3C2=O)cc1 [ANISINDIONE] | > 10 µM | > 10 µM | > 10 µM | > 10 µM | > 10 µM | > 10 µM | > 10 µM | > 30 µM | > 10 µM | > 30 µM | > 30 µM | > 10 µM | > 10 µM | > 10 µM | > 10 µM | > 10 µM
O=C(CCCN1CCC(O)(c2ccc(Br)cc2)CC1)c1ccc(F)cc1 [BROMPERIDOL] |  | 7.3 µM |  | > 30 µM | > 30 µM | > 30 µM | > 30 µM | > 30 µM | > 30 µM | > 30 µM | 0.041 µM | > 30 µM |  | > 30 µM | > 30 µM | > 30 µM
COc1cc(N)c(Cl)cc1C(=O)NC1CCN(CCCOc2ccc(F)cc2)CC1OC (stereo not given) [CISAPRIDE] | > 30 µM |  |  | > 30 µM | > 10 µM | > 10 µM | > 30 µM | > 30 µM | > 30 µM | > 10 µM | 6.3 µM | > 10 µM |  | > 10 µM |  | > 30 µM
Fc1ccc([C@@H]2CCNC[C@H]2COc2ccc3c(c2)OCO3)cc1 [PAROXETINE] |  | 19.1 µM |  | > 30 µM |  | > 10 µM | > 30 µM | > 30 µM | > 30 µM |  | > 10 µM | 2.5 µM | 7.8 µM |  | 9.9 µM and > 30 µM | > 30 µM
O=c1c(O)c(-c2ccc(O)c(O)c2)oc2cc(O)cc(O)c12 [QUERCETIN] |  | > 30 µM | > 10 µM | > 30 µM | 10 µM |  | > 30 µM | > 30 µM |  | > 30 µM | > 30 µM | > 10 µM | > 10 µM | > 10 µM | > 30 µM | > 30 µM
CCOC(=O)[C@@H](N)Cc1ccc(-c2cc(O[C@H](c3ccc(Cl)cc3-n3ccc(C)n3)C(F)(F)F)nc(N)n2)cc1 [TELOTRISTAT ETHYL] | 16 µM | > 30 µM | > 30 µM | > 30 µM | > 30 µM | > 30 µM | > 30 µM | > 30 µM | > 30 µM | > 30 µM | > 30 µM |  | 22 µM | > 30 µM | > 30 µM | 11 µM
CC(C)(C)NCC(O)c1ccccc1Cl (stereo not given) [TULOBUTEROL] | > 30 µM | > 30 µM | > 30 µM | > 30 µM | > 30 µM |  | > 30 µM | > 30 µM | > 30 µM | > 30 µM | > 30 µM | > 30 µM | > 30 µM | > 30 µM | > 30 µM | > 30 µM
CC(C(=O)O)c1ccc2c(c1)CC(=O)c1ccccc1S2 (stereo not given) [ZALTOPROFEN] | > 30 µM | > 30 µM | > 30 µM | > 30 µM | > 30 µM |  | > 30 µM | > 30 µM | > 30 µM | > 30 µM | > 30 µM | > 30 µM | > 30 µM | > 30 µM | > 30 µM | > 30 µM

— ChEMBL document CHEMBL5291721, “A preclinical secondary pharmacology resource illuminates target-adverse drug reaction associations of marketed drugs” (Nat Commun, 2023)
